A word on the pKi: it is the negative decadic logarithm of the Ki, by convention in mol/L.

Consider five substances from article PMC3158827 (ACS chemical biology, 2011).

pKi: −log10 of the molar value. Non-standard residues stand in square brackets, D forms with d. No end group written: not given here.

The target in data set [1] is plasma kallikrein. To be noted: cited from earlier work.
The test system of data set [2] is chymotrypsin. Kind of data set: chymotrypsin. Particulars: 37°C, up to 120 minutes.
Data set [3] deals with thrombin. To be noted: cited from earlier work.
For data set [4], the system named is thrombin. Particulars: cited from earlier work. This is another data set of the same source.
The test system of data set [5] is trypsin. To be noted: cited from earlier work.

As for Ecallantide, the pKi in data set [1] was 10.36.
Regarding GGSCIDGGRLMCGGS, the cleaved bond result in data set [2] is “methionine-C”.
Turning to [dF]PRP, the thrombin inhibition entry in data set [3] (concentrations up to 10 µM) is on record as “does not significantly inhibit thrombin”.
Regarding bivalirudin, in data set [4], the association rate constant is 4e+08 M⁻¹ s⁻¹ and the dissociation rate was 0.8 s⁻¹. The pKi in data set [3] is 8.70.
For the substance ω-conotoxin MVIIa, in data set [5], the degradation by trypsin result is on record as “degraded”.
